21 compounds from the RepoRT retention time repository (doi:10.1016/j.aca.2011.12.065) can be followed below.

Data set [1] in a line: RP, Waters ACQUITY UPLC BEH C18, 100 × 2.1 mm, 1.7 µm; A: water + 0.1% formic acid, pH 3; B: 80% acetonitrile + 20% acetone + 0.1% formic acid, pH 3; gradient (min/%B) 0/0 6/100. Conditions: stereoisomer not certain.
A short description of data set [2]: RP, Waters ACQUITY UPLC HSS T3, 100 × 2.1 mm, 1.8 µm; A: water + 0.1% formic acid, pH 3; B: 30% methanol + 70% acetonitrile + 0.1% formic acid, pH 3; gradient (min/%B) 0.0/5 1.0/8 2.0/15 3.0/40 4.0/70 4.5/100 5.0/100 6.4/100 6.6/5.0 6.8/5.0 7.0/5.0. As to conditions: stereoisomer not certain.

Turning to `Nc1ccc(C(=O)O)cc1` [paba], the values for the LC retention time in data set [1] and in data set [2] were 1.5 min and 2.09 min, respectively.

Take `Cn1cnc(C[C@H](N)C(=O)O)c1` [1-Methyl-L-Histidine]: the LC retention time in data set [1] is 0.531 min; in data set [2], 0.425 min.

Turning to `O=C([O-])c1cc(=O)[nH]c(=O)[nH]1` [orotic acid], the LC retention time in data set [1] stood at 0.719 min; in data set [2], 0.588 min.

For the compound `CC(=O)Nc1ccc(C(=O)O)cc1` [4-acetamidobenzoic acid], the figures for the LC retention time in data set [1] and in data set [2] were 1.71 min and 3.23 min, respectively.

As for `Nc1ncnc2nc[nH]c12` [Adenine], the LC retention time in data set [1] is 0.685 min; in data set [2] it was 0.538 min.

Regarding `COc1cc(C(=O)O)ccc1O` [Vanillic acid], the figures for the LC retention time in data set [1] and in data set [2] were 1.78 min and 3.17 min, respectively.

As for `O=Cc1ccc(O)cc1` [4-hydroxybenzaldehyde], the LC retention time in data set [1] was found to be 1.91 min; in data set [2], 3.3 min.

Consider `CC12CCC(=O)C=C1CCC1C2C(=O)CC2(C)C1CCC2(O)C(=O)CO` (configuration not stated) [Cortisone], for which the LC retention time in data set [1] was found to be 2.61 min; in data set [2] it was 3.84 min.

For the compound `Cc1cc2nc3c(=O)[nH]c(=O)nc-3n(CC(O)C(O)C(O)CO)c2cc1C` (configuration not stated) [Riboflavin], the LC retention time was found to be 1.68 min in data set [1] and 3.38 min in data set [2].

Turning to `CC(CCC(=O)NCCS(=O)(=O)O)C1CCC2C3C(O)CC4CC(O)CCC4(C)C3CC(O)C12C` (configuration not stated) [Taurocholic acid], the results for the LC retention time in data set [1] and in data set [2] were 2.85 min and 4.26 min, respectively.

As for `OCC1OC(OC2(CO)OC(CO)C(O)C2O)C(O)C(O)C1O` (configuration not stated) [sucrose], the LC retention time was 0.661 min in data set [1] and 0.504 min in data set [2].

`NCCCCC(N)C(=O)O` (stereo not drawn) [l-lysine]: the LC retention time in data set [1] was 0.51 min; in data set [2], 0.404 min.

For the compound `O=C(O)CCCCC(=O)O` [Adipic acid], the LC retention time in data set [1] stood at 1.5 min; in data set [2], 2.33 min.

Turning to `CNCC(=O)O` [sarcosine], the LC retention time is 0.574 min in data set [1] and 0.468 min in data set [2].

For the compound `CC(=O)NC(Cc1ccc(O)cc1)C(=O)O` (stereo not drawn) [n-acetyl-l-tyrosine], the LC retention time was found to be 1.53 min in data set [1] and 2.68 min in data set [2].

As to `NC(CCCCNCC(=O)O)C(=O)O` (configuration not stated) [cml], the LC retention time in data set [1] came out at 0.676 min; in data set [2] it was 0.527 min.

For `NC(CCCC(=O)O)C(=O)O` (racemic) [dl-2-aminoadipic acid], the values for the LC retention time in data set [1] and in data set [2] were 0.657 min and 0.51 min, respectively.

As for `NC(CCC(=O)O)C(=O)O` (configuration not stated) [glutamic acid], the LC retention time in data set [1] stood at 0.577 min; in data set [2] it was 0.475 min.

As to `Cn1c(=O)[nH]c2ncn(C)c2c1=O` [1,7-dimethylxanthine], the LC retention time stood at 1.45 min in data set [1] and 2.56 min in data set [2].

With `O=C1CCC(C(=O)O)N1` (configuration not stated) [Pyroglutamic acid], the LC retention time in data set [1] came out at 0.836 min; in data set [2], 0.731 min.

As for `OCC1OC(Oc2c[nH]c3ccccc23)C(O)C(O)C1O` (stereo not drawn) [indoxyl beta-d-glucoside], the LC retention time in data set [1] came out at 1.7 min; in data set [2] it was 2.92 min.
